In brackets after ≈: the same amount, converted by molar mass. Counter-ions that a name gives are not always drawn.
Tests used:
[1] = Cytotoxicity test (Trypan Blue, rat abdominal cavity cells); assay type: cell-based; conditions: various concentrations, 37° C., 0-120 minutes
Experimental: To 80 μl of cell suspension (1-2×10^6 cells/ml) prepared in the same manner as in Example 2 were added 20 μl of sample solutions (Tomato Extract 1, naringenin chalcone, tricaffeoylquinic acid or dicaffeoylsuccinylquinic acid obtained in Example 1) with various concentrations, and the mixture was cultured at 37° C. Each of 10 μl aliquots was taken after 0, 10, 20, 60 and 120 minutes from the start of culturing, and each aliquot was added to 20 μl of 0.4% Trypan Blue prepared in advance. Judging those cells that were stained with blue pigment to be dead cells, the number of cells was counted under microscopic examination using a hemocytometer. Viability (percentage of viable cells to the total number of cells) and the number of viable cells were measured.

rat fat cells = experiment: Histamine-release inhibiting activity from rat fat cells (Compound 48/80 induced); assay type: cell-based; conditions: for IC50: 50% inhibition rate; for inhibition at 25 µg/mL: sample concentration 25 μg/ml; for inhibition at 75 µg/mL: sample concentration 75 μg/ml; for activity relative to the known agents (caffeic acid, ketotifen fumarate): from IC50 values of histamine-release inhibition; for histamine-release inhibiting activity (FIG. 7): sample solutions 100 μg/ml each; for inhibition at 250 µg/mL: sample concentration 250 μg/ml
Experimental: Cells were collected from the abdominal cavity of rats immediately after being sacrificed by exsanguinations using heparin-containing fat cell buffer (composition: 0.150 M NaCl, 3.7 mM KCl, 3.0 mM Na2HPO4, 3.5 mM KH2PO4, 0.9 mM CaCl2, 5.6 mM D-glucose, 0.1% (w/v) gelatin) (Lectures on Experimental Biopharmacology, Vol.12, Inflammations and Allergies II, edited by Kazuo Ohuchi, published by Hirokawa Publishing, 1993, page 372). After washing the cells, the above heparin-containing fat cell buffer was added to a concentration of 2.0×10^5 cells/ml, and this was used as the cell suspension.
Meanwhile, 3 mg of tomato extract were dissolved in 1 ml of 1% dimethyl sulfoxide (DMSO) and used as a sample solution. Further, the naringenin chalcone obtained in Example 1-3, and ketotifen fumarate, which is known to have an antiallergic activity, were respectively dissolved in the heparin-containing fat cell buffer containing 0.15% DMSO (final concentration), and the tricaffeoylquinic acid obtained in Example 1-4, and caffeic acid, which is known to have an antiallergic activity, were respectively dissolved in heparin-containing fat cell buffer containing 0.08% ethanol (final concentration), and each of these were used as sample solutions having concentrations of 25-250 μg/ml.
80 μl of the above cell suspension were added to 20 μl of the sample solution and the mixture was incubated at 37° C. for 10 minutes. Subsequently, 20 μl of Compound 48/80 (5 μg/ml) were added as histamine-degranulation inducer, and the mixture was incubated for 10 minutes. After the mixture was cooled with ice, it was separated by centrifugation (1,500×g, 5 minutes, 4° C.), and the free histamine in the supernatant was measured by high-performance liquid chromatography equipped with a fluorescent detector.
Histamine-release inhibiting activity was calculated from the measured histamine values using calculation formula (1) shown below. Histamine-release inhibition rate (%)=(1−(S−B)/(C−B))×100 (1) • B: Amount of histamine released from control cells in the absence of inducer • C: Amount of histamine released from cells in the presence of inducer • S: Amount of histamine released from cells in the presence of test sample and inducer

rat macrophages = experiment: Leukotriene B4 release inhibiting activity from rat macrophages (opsonized zymosan, ELISA); assay type: cell-based; conditions: Macrophage, read-out: Inhibition rate (%); for inhibition at 5 µg/mL: sample concentration 5 μg/ml; for inhibition at 50 µg/mL: sample concentration 50 μg/ml; for inhibition at 500 µg/mL: sample concentration 500 μg/ml
Experimental: Soluble starch (Wako, grade 1) and Bactopeptone (Difco) were suspended in physiological saline (0.9% NaCl, Ohtsuka Pharmaceutical, Co.) to have a concentration of 5% each. After sterilizing with an autoclave (121° C., 20 minutes), the suspension was cooled down to room temperature. The suspension was administered by injection into rat abdominal cavity in an amount of 5 mL per 100 g of body weight under ether anesthesia (using a 21G needle).
Four days later, the rats were sacrificed by exsanguination from the carotid artery under ether anesthesia. After adequately exsanguinating the rats, the rats were sprayed with ethanol and placed in a clean bench. 25 mL of CMF-HBSS (Ca, Mg free HBSS) were injected into the abdominal cavity followed by adequately rubbing the abdomen. The rats were laparotimized using sterilized instruments, and the solution within the abdominal cavity was collected. The collected solution was filtered using three layers of gauze. The abdominal cavity was further washed with 25 mL of CMF-HBSS (Ca, Mg free HBSS), and the solution was collected in the same manner. The collected cells were washed three times with ice-cold 0.1% BSA-PBS, suspended in 10% FBS-RPMI1640 medium. The cell suspension was dispersed in a 6 cm Petri dish to have 4.5×10^6 cells/3 mL/dish, and incubated for 2 hours in an incubator kept at 5% CO2 and 37° C. Subsequently, the supernatant was discarded, the Petri dish was washed three times with PBS to rinse off non-adherent cells, and the cells adhered onto inside of the Petri dish were used as macrophages. After the macrophages were pre-incubated for 20 minutes in 1% FBS-RPMI1640 medium, zymosan opsoninized using rat serum was added thereto, and the mixture was cultured in an incubator kept at 5% CO2 and 37° C. for a predetermined period of time. Incidentally, samples were added 30 minutes before addition of zymosan. After completion of culture, supernatant from the culture was recovered and the amount of LTB4 in the supernatant was measured using an ELISA kit (Leukotriene B4 EIA Kit, Cayman). Activity of inhibiting release of leukotriene B4 was calculated from the measured leukotriene B4 values using the following calculation formula (2): Leukotriene B4 release inhibition rate (%)=(1−(S−B)/(C−B))×100 (2) • B: Amount of leukotriene B4 released from control cells in the absence of inducer • C: Amount of leukotriene B4 released from cells in the presence of inducer • S: Amount of leukotriene B4 released from cells in the presence of test sample and inducer

mouse auricular edema = experiment: Anaphylaxis inhibitory action in mouse auricular edema (anti-TNP-IgE / picryl chloride); assay type: in vivo
Experimental: C3H/Hecrj, 7-week-old female mice having body weights of 15-20 g were used in groups of five animals each. Tomato Extract 1 was suspended in 0.5% CMC-Na (sodium carboxymethyl cellulose) solution, while 0.5% CMC-Na was administered as a control. The samples were administered six times over the course of five days, and measurements were made on day 5. The animals were dosed once a day from day 1 through day 4, and on day 5, they were orally dosed twice, 4 hours before and 30 minutes after administration of anti-TNP-IgE solution. The dose of Tomato Extract 1 was 0.16 mg, 0.8 mg or 4 mg per 1 kg of mouse body weight.
0.2 ml of 1% anti-TNP-IgE solution was administered from the vein of eye ground, and 30 minutes later, sample solution was orally administered. Further 30 minutes later, thickness of the left and right ears were measured. Immediately after that, 10 μl of 0.8% acetone-olive oil (1:1) solution of picryl chloride was applied to each ear. The thickness of the left and right ears of the mice were measured two hours after application, and the difference in ear thickness before and after application was taken to represent edema caused by anaphylaxis. A test of significance was carried out using the Student's t-test.
Measurement was made in the same manner as in (1) above, except for administration method. Samples were administered six times over the course of five days, and measurement was made on day 5. The animals were dosed once a day from day 1 through day 4, and on day 5, they were orally dosed twice, 4 hours before and 30 minutes after administration of anti-TNP-IgE solution. The dose of tricaffeoylquinic acid was 0.16 mg, 0.8 mg, 4 mg or 20 mg per kilogram of mouse body weight.

[2] = Rattus norvegicus, histamine release
[3] = Rattus norvegicus, histamine release, read-out: Inhibition rate (%)

| SMILES | cytotoxicity (viability and number of viable cells) [1] | IC50 (rat fat cells; [2]) | inhibition at 25 µg/mL (rat fat cells; [3]) | inhibition at 75 µg/mL (rat fat cells; [3]) | histamine-release inhibiting activity (FIG. 7) (rat fat cells) | also measured |
| --- | --- | --- | --- | --- | --- | --- |
| O=C(/C=C/c1ccc(O)c(O)c1)OC1CC(O)(C(=O)O)CC(OC(=O)/C=C/c2ccc(O)c(O)c2)C1OC(=O)/C=C/c1ccc(O)c(O)c1 (stereo not drawn) [Tricaffeoylquinic acid, 3,4,5-tricaffeoylquinic acid] | no cytotoxicity was observed | ~25 mg/L (≈ 36.8 µM) | 54.1% | 93.2% | exhibited a significantly high activity | activity relative to the known agents (caffeic acid, ketotifen fumarate) (rat fat cells): roughly 10 times; inhibition at 5 µg/mL (rat macrophages): 33.5%; inhibition at 50 µg/mL (rat macrophages): 65.8%; inhibition at 500 µg/mL (rat macrophages): 69.7%; anaphylaxis inhibitory action (FIG. 9) (mouse auricular edema; dose 4 mg per kg): exhibited an anaphylaxis inhibitory action; anaphylaxis inhibitory action (FIG. 10) (mouse auricular edema; orally administered, 0.16, 0.8, 4 or 20 mg per kg, six doses over five days): exhibited an anaphylaxis inhibitory action |
| O=C(O)CCC(=O)OC1C(OC(=O)/C=C/c2ccc(O)c(O)c2)CC(O)(C(=O)O)CC1OC(=O)/C=C/c1ccc(O)c(O)c1 (stereo not drawn) [dicaffeoylsuccinylquinic acid, 3,5-dicaffeoyl-4-succinylquinic acid] | no cytotoxicity was observed | – | – | – | exhibited a significantly high activity | – |
| O=C(/C=C/c1ccc(O)cc1)c1c(O)cc(O)cc1O [Naringenin chalcone, 2′,4′,6′,4-tetrahydroxy-chalcone] | no cytotoxicity was observed | ~70 mg/L (≈ 257 µM) | 28.2% | 53.9% | – | inhibition at 50 µg/mL (rat fat cells; Rattus norvegicus, histamine release, sample concentration 50 μg/ml, read-out: Inhibition rate (%)): 37.6%; inhibition at 200 µg/mL (rat fat cells; Rattus norvegicus, histamine release, sample concentration 200 μg/ml, read-out: Inhibition rate (%)): 82%; activity relative to the known agents (caffeic acid, ketotifen fumarate) (rat fat cells): roughly 3.5 times; inhibition at 5 µg/mL (rat macrophages): 62.3%; inhibition at 50 µg/mL (rat macrophages): 93.5%; inhibition at 500 µg/mL (rat macrophages): 98.2%; anaphylaxis inhibitory action (FIG. 8) (mouse auricular edema; doses 0.0064, 0.032, 0.16 or 0.8 mg per kg): exhibited an anaphylaxis inhibitory action dose-dependently |
| O=C(/C=C/c1ccc(O)c(O)c1)O[C@@H]1C[C@](O)(C(=O)O)C[C@@H](O)[C@H]1O [chlorogenic acid, reference compound] | – | – | – | – | did not inhibit histamine-release | – |
| CN1CCC(=C2c3ccccc3CC(=O)c3sccc32)CC1 [Ketotifen fumarate, ketotifen fumarate, reference compound] | – | ~250 mg/L | 0% | 13.1% | – | inhibition at 250 µg/mL (rat fat cells; [3]): 49.4% |
| O=C(O)/C=C/c1ccc(O)c(O)c1 [Caffeic acid, caffeic acid, reference compound] | – | ~250 mg/L (≈ 1390 µM) | – | – | more potent in the order of caffeic acid followed by dicaffeoylquinic acid | inhibition at 250 µg/mL (rat fat cells; [3]): 50.1% |
| O=C(O)[C@]1(O)C[C@@H](O)[C@@H](O)[C@H](O)C1 [quinic acid, reference compound] | – | – | – | – | did not inhibit histamine-release | – |

— patent US7511078B2, “Antiallergic agents, drugs, foods, drinks or cosmetics containing them and process for producing the same” (Kikkoman Corporation, priority 2001, dated 2009)
